Read-outs that look alike come from different tables or passages of the source.
Legend:
[1] = ASSAY I: leakage of carboxyfluorescein from vesicles; type: biochemical; conditions: for efficacy in permeabilizing phospholipid membranes: concentrations required for >50% leakage taken as measure
[2] = ASSAY II: proton transport across lipid membranes; type: biochemical
[3] = system: DH2 cells (a mutant strain of E. coli K-12); type: cell-based; conditions: for EFFECT (enhancement of erythromycin): compound 20 mM; for enhancing effect on erythromycin: test compound 20 mM; for EFFECT (enhancement of erythromycin): key: --: erythromycin alone at 1.0 mM (baseline) and all lesser effects; +: enhancement relative to baseline; +++: significant enhancement relative to baseline
[4] = 0.000579 mM final concentration

| Compound | % increase in Fluorescence ([1]; 0.117 mM final concentration) [%] | % Decrease in Fluorescence ([2]; 0.00579 mM final concentration) [%] | % Decrease in Fluorescence ([2]; 0.0116 mM final concentration) [%] | further results |
| --- | --- | --- | --- | --- |
| C[C@H](CCC(=O)O)[C@H]1CC[C@H]2[C@@H]3[C@H](O[C@@H]4O[C@H](CO)[C@@H](O)[C@H](O)[C@H]4O)C[C@@H]4C[C@H](O)CC[C@]4(C)[C@H]3C[C@H](O[C@@H]3O[C@H](CO)[C@@H](O)[C@H](O)[C@H]3O)[C@]12C [Entry 10, 3α-hydroxy-cis-5,10-bis-β,β-7,12-glucosyl cholic acid] | 0 |  |  |  |
| COC(=O)CC[C@@H](C)[C@H]1CC[C@H]2[C@@H]3[C@H](O[C@H]4O[C@H](CO)[C@@H](O)[C@H](O)[C@H]4O)C[C@@H]4C[C@H](OC(=O)c5ccccc5)CC[C@]4(C)[C@H]3C[C@H](O[C@H]3O[C@H](CO)[C@@H](O)[C@H](O)[C@H]3O)[C@]12C [Entry 7, 3α-O-benzoyl-cis-5,10-bis-α,α-7,12-glucosyl cholic acid methyl ester] | 89.1 | 15.2 | 19.8 | efficacy in permeabilizing phospholipid membranes [1]: the most effective glycosylated steroids tested |
| COC(=O)CC[C@@H](C)[C@H]1CC[C@H]2[C@@H]3[C@H](O[C@H]4O[C@H](CO)[C@@H](O)[C@H](O)[C@H]4O)C[C@H]4C[C@H](OC(=O)c5ccccc5)CC[C@]4(C)[C@H]3C[C@H](O[C@H]3O[C@H](CO)[C@@H](O)[C@H](O)[C@H]3O)[C@]12C [Entry 11, 3α-O-benzoyl-trans-5,10-bis-α,α-7,12-glucosyl cholic acid methyl ester] | 98 |  | 22.0 | efficacy in permeabilizing phospholipid membranes [1]: the most effective glycosylated steroids tested; % Decrease in Fluorescence ([2]; 0.00585 mM final concentration): 14.7%; EFFECT (enhancement of erythromycin) ([3]; erythromycin 0.5 mM): +; EFFECT (enhancement of erythromycin) ([3]; erythromycin 1.0 mM): + |
| Gramicidin [reference compound] |  | 87.2 |  | % Decrease in Fluorescence [2, 4]: 81.6% |
| CCOC(=O)O[C@@H]1CC[C@@]2(C)[C@@H](C1)C[C@@H](O[C@H]1O[C@H](CO)[C@@H](O)[C@H](O)[C@H]1O)[C@@H]1[C@@H]2C[C@H](O[C@H]2O[C@H](CO)[C@@H](O)[C@H](O)[C@H]2O)[C@]2(C)[C@@H]([C@H](C)CCC(=O)OC)CC[C@@H]12 [Entry 1, 3α-ethylcarbonate-cis-5,10-bis-α,α-7,12-glucosyl cholic acid methyl ester] | 0 | 4.3 | 7.6 |  |
| COC(=O)CC[C@@H](C)[C@H]1CC[C@H]2[C@@H]3[C@H](O)C[C@@H]4C[C@H](O)CC[C@]4(C)[C@H]3C[C@H](O)[C@]12C [Methyl Cholate, reference compound] | 25.4 |  | 5.4 |  |
| C[C@H](CCC(=O)O)[C@H]1CC[C@H]2[C@@H]3[C@H](O[C@@H]4O[C@H](CO)[C@@H](O)[C@H](O)[C@H]4O)C[C@H]4C[C@H](O)CC[C@]4(C)[C@H]3C[C@H](O[C@@H]3O[C@H](CO)[C@@H](O)[C@H](O)[C@H]3O)[C@]12C [Entry 13, 3α-hydroxy-trans-5,10-bis-β,β-7,12-glucosyl cholic acid] | 0 | 35.2 | 70.6 | % Decrease in Fluorescence [2, 4]: 2.8% |
| C[C@H](CCC(=O)O)[C@H]1CC[C@H]2[C@@H]3[C@H](O[C@H]4O[C@H](CO)[C@@H](O)[C@H](O)[C@H]4O)C[C@@H]4C[C@H](O)CC[C@]4(C)[C@H]3C[C@H](O[C@H]3O[C@H](CO)[C@@H](O)[C@H](O)[C@H]3O)[C@]12C [Entry 3, 3α-hydroxy-cis-5,10-bis-α,α-7,12-glucosyl cholic acid] |  | 21.0 | 35.4 | % increase in Fluorescence ([1]; 2.34 mM final concentration): 0% |
| C[C@H](CCC(=O)NC(Cc1c[nH]c2ccccc12)C(=O)O)[C@H]1CC[C@H]2[C@@H]3[C@H](O[C@H]4O[C@H](CO)[C@@H](O)[C@H](O)[C@H]4O)C[C@@H]4C[C@H](O)CC[C@]4(C)[C@H]3C[C@H](O[C@H]3O[C@H](CO)[C@@H](O)[C@H](O)[C@H]3O)[C@]12C (stereo partly drawn) [Entry 5, 3α-hydroxy-cis-5,10-bis-α,α-7,12-glucosyl-25-tryptophanyl cholic acid] | 57.3 | 19.4 | 26.1 |  |
| C[C@H](CCC(=O)O)[C@H]1CC[C@H]2[C@@H]3[C@H](O)C[C@@H]4C[C@H](O)CC[C@]4(C)[C@H]3CC[C@]12C [Chenodeoxycholic Acid, reference compound] | 17.7 |  | 8.2 | % increase in Fluorescence ([1]; 1.17 mM final concentration): 80.9%; efficacy in permeabilizing phospholipid membranes [1]: also permeabilize membranes in this assay, although at much higher concentrations; enhancing effect on erythromycin [3]: did not have a detectable effect |
| C[C@H](CCC(=O)O)[C@H]1CC[C@H]2[C@@H]3CC[C@@H]4C[C@H](O)CC[C@]4(C)[C@H]3C[C@H](O)[C@]12C [Deoxycholic Acid, reference compound] |  |  |  | efficacy in permeabilizing phospholipid membranes [1]: also permeabilize membranes in this assay, although at much higher concentrations; EFFECT (enhancement of erythromycin) ([3]; erythromycin 0.5 mM): +; EFFECT (enhancement of erythromycin) ([3]; erythromycin 1.0 mM): +; enhancing effect on erythromycin [3]: showed any effect |
| COC(=O)CC[C@@H](C)[C@H]1CC[C@H]2[C@@H]3[C@H](O[C@H]4O[C@H](CO)[C@@H](O)[C@H](O)[C@H]4O)C[C@@H]4C[C@H](O)CC[C@]4(C)[C@H]3C[C@H](O[C@H]3O[C@H](CO)[C@@H](O)[C@H](O)[C@H]3O)[C@]12C [Entry 4, 3α-hydroxy-cis-5,10-bis-α,α-7,12-glucosyl cholic acid methyl ester] | 0 | 7.89 | 12.3 |  |
| C[C@H](CCC(=O)O)[C@H]1CC[C@H]2[C@@H]3[C@H](O[C@H]4O[C@H](CO)[C@@H](O)[C@H](O)[C@H]4O)C[C@@H]4C[C@H](O)CC[C@]4(C)[C@H]3C[C@H](O[C@H]3O[C@H](CO)[C@@H](O)[C@H](O)[C@H]3O)[C@]12C [3α-OH-cis-5,10-bis-α,α-glucosyl cholic acid K^+] |  |  |  | EFFECT (enhancement of erythromycin) ([3]; erythromycin 0.5 mM): +; EFFECT (enhancement of erythromycin) ([3]; erythromycin 1.0 mM): + |
| COC(=O)CC[C@@H](C)[C@H]1CC[C@H]2[C@@H]3[C@H](O[C@@H]4O[C@H](CO)[C@@H](O)[C@H](O)[C@H]4O)C[C@H]4C[C@H](OC(=O)c5ccccc5)CC[C@]4(C)[C@H]3C[C@H](O[C@@H]3O[C@H](CO)[C@@H](O)[C@H](O)[C@H]3O)[C@]12C [Entry 9, 3α-O-benzoyl-trans-5,10-bis-β,β-7,12-glucosyl cholic acid methyl ester] | 24.5 | 27.4 | 43.0 |  |

— US5627270A, “Glycosylated steroid derivatives for transport across biological membranes and process for making and using same” (Trustees of Princeton University, priority 1994, dated 1997)
